Assay results from patent US20040211730A1, “Methods and compounds for controlling the morphology and shrinkage of silica derived from polyol-modified silanes” (priority 2002, published 2004).
Like-named read-outs stand apart in the source and are kept apart here.

Molecular target: T1, Dihydrofolate reductase (DHFR) (Escherichia coli, UniProt P0ABQ4)
T1 construct: gift of Professor Eric Brown (McMaster University)
Format: binding, E. coli
Conditions: for retention (elution) time: FIG. 19 Panel B, column with 50 pmol DHFR initial loading, compounds infused at 20 nM, fluorescein 100 nM; for elution time: first run
Method: A second aqueous solution of 50 mM HEPES at pH 7.5 was prepared containing 16% (w/v) PEO (MW=10 000) and 0.6% (v/v) APTES. This aqueous solution also contained ca. 20 μM of DHFR. […] The mixture underwent spinodal decomposition (phase separation) in about 2-3 min followed by silica polymerization (˜10 min) to generate a hydrated macroporous monolithic column containing entrapped protein. After loading the sol-gel mixture, the monolithic columns were aged for a minimum of 5 days at 4 C and then cut into 10 cm lengths before use. In some cases, the APTES present in the columns was replaced with a final concentration of either 0.03% polyallylamine (PAM, MW 17,000) or 0.3% dimethyldimethoxysilane (DMDMS) to examine the effects of surface derivatization on non-selective retention.
Syringe pumps (Harvard Instruments PhD 2000) were used to deliver solutions, and a flow-switching valve was used to toggle between the assay buffer and the solution containing the compound mixture. This solution was then pumped through the column to achieve equilibrium. Effluent was combined with suitable organic modifiers to assist in the generation of a stable electrospray and detectability of the sprayed components using a triple-quadrupole MS system (Sciex API 3000). This configuration allows for maximum flexibility in compound introduction. Full operation of FAC-MS methods requires frequent flow switching between two solutions connected to the head of the column. An Upchurch microinjection valve allows syringe contents to be exchanged during operation. […] All other connections between components were achieved using fused silica tubing.
Before the first run, the column was flushed with 0.05 M NH4OAc buffer (pH 6.6, 100 mM NaCl) for 30 min at different flow rates (from 1 to 5 μL.min^−1) to remove any glycerol and non-entrapped protein and then equilibrated with 2 mM NH4OAc for 30 min at different flow rates (from 1 to 5 μL.min^−1). All compounds tested were present in 2 mM NH4OAc and were delivered at a rate of 5 μL.min^−1 using the syringe pump. The makeup flow (used to assist in the generation of a stable electrospray) consisted of methanol containing 10% (v/v) NH4OAc buffer (2 mM) and was delivered at 5 μL.min^−1.
In each case, the data were fit to the following equation:^17 [formula]
where V0 is the void volume (μL), V is the retention volume (μL), [A] is the analyte concentration (μM), Kd is the binding constant of the ligand to the protein (μM) and Bt is the total picomoles of active protein in the column.

[1] = FIG. 21 Panel A, in 2 mM ammonium acetate
[2] = FIG. 21 Panel B, second column cut from the same capillary, same infusion

Row | Compound | retention (elution) time [min] | elution time [1] [min] | elution time [2] [min]
1 | O=c1ccc2ccccc2o1 [coumarin] | 2 | 2.7 | 2.6
2 | Nc1nc2ncc(CNc3ccc(C(=O)N[C@@H](CCC(=O)O)C(=O)O)cc3)nc2c(=O)[nH]1 [folic acid] | 7 | 8.9 | 8.4
